Values quoted from earlier work in PMC9518246, “Design and synthesis of new indole drug candidates to treat Alzheimer’s disease and targeting neuro-inflammation using a multi-target-directed ligand (MTDL) strategy” (Journal of Enzyme Inhibition and Medicinal Chemistry, 2022).

System: IL-1β production
Design: method as in PMID 21295616
Conditions: read-out: suppression of IL-1β production IC50; cited from earlier work

## Cc1cc(-c2ccccc2)nnc1C(=O)N1CCN(c2ncccn2)CC1 [GIBH-130]
  IC50: 3.4 nM
